Measured values reported in patent US9802897B2, “Amidopyridinol derivative or pharmaceutically acceptable salt thereof and pharmaceutical composition comprising same as active component” (Research Cooperation Foundation of Yeungnam University, priority 2013, dated 2017).
Several values for one entry are separate records, joined by “and”; a condition that tells them apart may be missing. Equal values may be shown once.

Key:
[1] = test system: VEGF-induced angiogenesis in chicken chorioallantoic membrane (CAM); test: CAM analysis of VEGF-induced angiogenesis; type: in vivo; settings: for inhibition in vivo at 0.01 nmol/CAM: Gallus gallus, 72 h, VEGF (20 ng/CAM) + Compound (0.01 nmol/CAM), number of blood vessels after 3 days, read-out: Inhibitory rates (%); for ID50 against inhibition of angiogenesis: VEGF-induced CAM angiogenesis
Summary of the method: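 Fertilized chicken eggs incubated at 37° C, 55% humidity; on day 10 a window was opened and a cortisone acetate (3 mg/mL)-treated filter disk carrying VEGF at 20 ng/CAM was placed on vessels. Compounds in DMSO/PBS were applied at several concentrations for 3 days; blood vessel number under the disk was counted by stereomicroscopy.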

ARPE-19 cell line = test: Scavenging of ROS induced by risk factors of macular degeneration (4-HNE, Ang II) in ARPE-19 cells; type: cell-based; settings: vs control group
Method: To measure scavenging effects of ROS in HUVEC cells that were induced by VEGF, 2′,7′-dichlorofluorescein diacetate (DCF-DA) was used. […] After […] at a concentration of 1×10^5, each of which well was coated with 0.2% gelatin, DCF-DA was cultured for 24 hours. Meanwhile, Compounds 8a and 8b were pre-treated for 3 hours, induced by VEGF for 15 minutes, and then, washed with PBS (pH 7.4) three times. Then, 10 μM of DCF-DA was placed in a EBM-2 medium to be treated for 30 minutes in a dark room. Then, DCF-DA was washed again with PBS three times, and then, subjected to measure intensity of fluorescence in the cells by using a fluorescence microscope.
According to a similar manner as in Experimental Example 2, a risk factor of macular degeneration, e.g., 4-hydroxynonenal (4-HNE) or angiotensin II (Ang II), were treated with an adult retinal pigment epithelium-19 (ARPE-19) cell line, so as to observe scavenging effects of ROS in Compounds 8a and 8b.

A549 lung cancer cells = test: CAM inoculated with A549 lung cancer cells: angiogenesis and tumor growth; type: in vivo, chicken; settings: for Inhibition rates of angiogenesis (%) / Inhibition rates of tumor growth (%): A549 on CAM, 5 days; for inhibitory effects on angiogenesis and tumor growth (in words): at each density
Method: To confirm inhibitory effects on angiogenesis through in vivo experiments, the CAM analysis was carried out (refer to Nguyen M et al., Microvascular Res., 47, pp 31-40, 1994). A fertilized egg of a chicken was cultured in conditions maintaining a temperature of 37° C. and relative humidity of 55%. On the 9th day of the culturing, a first small hole was made on an air sac part using a hypodermic needle (Green Cross Medical Corp., Korea), and then, a second hole was made on a flat part of the fertilized egg to make a window thereon. Air was removed through the first hole, i.e., the air sac part, and accordingly, the CAM was separated from the shell of the fertilized egg. Then, a grinding wheel (Multipro 395JA, Dremel, Mexico) was used to cut the air sac part, thereby making a window thereon. Meanwhile, A549 lung cancer cells were mixed with matrigel at a ratio of 1:1, and then, the mixture was treated with Compounds 8a, 8b, and 8g, respectively, followed by being inoculated at a density of 1.5×10^6 cells/CAM.
After 5 days of the inoculation, the CAM part on which tumors were formed was isolated, and then, washed with PBS. The Stemi SV6 stereomicroscope (Carl Zeiss, Germany) and the Image-Pro Plus software (Media Cybernetics; Silver Spring, Md., USA) were used to capture images of the CAM part, so as to measure the number of the blood vessels and to analyze data obtained therefrom.

[2] = ARPE-19 treated with 4-hydroxynonenal (4-HNE)
[3] = ARPE-19 treated with angiotensin II (Ang II)

SMILES | inhibition in vivo at 0.01 nmol/CAM [1] [%] | ID50 against inhibition of angiogenesis [1] | intensity of fluorescence (ROS) (ARPE-19 cell line; [2]) | intensity of fluorescence (ROS) (ARPE-19 cell line; [3]) | Inhibition rates of angiogenesis (%) (A549 lung cancer cells; 0.001 pmol/CAM) | Inhibition rates of tumor growth (%) (A549 lung cancer cells; 0.001 pmol/CAM) | Inhibition rates of angiogenesis (%) (A549 lung cancer cells; 0.01 pmol/CAM) | Inhibition rates of tumor growth (%) (A549 lung cancer cells; 0.01 pmol/CAM) | Inhibition rates of angiogenesis (%) (A549 lung cancer cells; 0.1 pmol/CAM) | Inhibition rates of tumor growth (%) (A549 lung cancer cells; 0.1 pmol/CAM) | Inhibition rates of angiogenesis (%) (A549 lung cancer cells; 1.0 pmol/CAM) | Inhibition rates of tumor growth (%) (A549 lung cancer cells; 1.0 pmol/CAM) | inhibitory effects on angiogenesis and tumor growth (in words) (A549 lung cancer cells)
CC(=O)Nc1nc(C)c(O)c(C)c1C [Compound 8a, N-(5-hydroxy-3,4,6-trimethylpyridine-2-yl)acetamide] | 84.8 ± 10 | 1.7 pg/CAM and 8.7 fmol/CAM | significant decrease in the intensity of fluorescence | significant decrease in the intensity of fluorescence | 12.7 ± 6.5 | 20.3 ± 5.9 | 23.8 ± 5.2 | 34.2 ± 5.3 | 30.4 ± 3.7 | 37.9 ± 8.0 | 41.2 ± 1.4 | 47.7 ± 4.1 | inhibited angiogenesis upon tumorigenesis, as well as tumor growth
CCCCCCCCCCCC(=O)Nc1nc(C)c(O)c(C)c1C [Compound 8b, N-(5-hydroxy-3,4,6-trimethylpyridine-2-yl)dodecanamide] | 59.3 ± 5.4 | 5.0 pg/CAM and 14.9 fmol/CAM | significant decrease in the intensity of fluorescence | significant decrease in the intensity of fluorescence | 12.2 ± 4.4 | 21.7 ± 8.9 | 18.0 ± 3.2 | 26.0 ± 10.0 | 21.3 ± 2.0 | 31.3 ± 7.3 | 24.7 ± 2.2 | 38.2 ± 7.2 | inhibited angiogenesis upon tumorigenesis, as well as tumor growth
